How the values were obtained:
[1] = Lipid peroxidation inhibitory activity (egg lecithin liposomes, TBA); type: biochemical; conditions: Conc. ± SD; standard ascorbic acid; read-out: IC50 inhibitory concentration, Lipid peroxidation
Method: Egg lecithin (3 mg/mL phosphate buffer, pH 7.4) was sonicated in an ultrasonic sonicator for 10 min to ensure proper liposome formation. Test samples or standard, ascorbic acid (100 μL) of different concentrations (10, 20, 30, 40 50 and 100 μg/mL) was added to liposome mixture (1 mL); the control was without test sample. Lipid peroxidation was induced by adding ferric chloride (10 μL, 400 mM) and L-ascorbic acid (10 μL, 200 mM). After incubation for 1 h at 37 °C, the reaction was stopped by adding hydrochloric acid (2 mL, 0.25 N) containing trichloroacetic acid (150 mg/mL), thiobarbituric acid (3.75 mg/mL) and butylated hydroxy anisole (0.50 mg/mL). The reaction mixture was subsequently boiled for 15 min, cooled and centrifuged at 1,000 rpm for 15 min, and the absorbance of the supernatant was measured at 532 nm (Duh and Yen, [1997]). The % inhibition at different concentrations was calculated by the following formula %Inhibition=[1-(Vt/Vc)]×100 where V t = mean absorption of test compound, V c = mean absorption of control.
The IC50 (nM/mL) value was derived from the % inhibition at different concentrations.

[2] = system: HEK 293, M468 and NCI-H226; assay: In vitro cytotoxicity by MTT assay, summary over all cell lines; type: cell-based; conditions: on all cell lines
Method in brief: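 After 72 h of compound exposure at 37 °C in 5 % CO2, MTT was added for 4 h and the propanol-solubilised formazan was read at 490 nm. Monolayers (~10,000 cells/well, RPMI-1640 plus 10 % newborn calf serum) had been allowed to form for 24 h beforehand.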

IC50 [1] [µM]	Compound	cytotoxic activity compared with all synthesized compounds [2]
122 ± 18.6	O=C(NS(=O)(=O)c1nnc(N=Cc2ccccc2)s1)c1ccccc1 [Compound 9a, N-{[5-(Benzylidenamino)-1,3,4-thiadiazol-2-yl]sulphonyl} benzamide]	–
133 ± 11.5	O=C(NS(=O)(=O)c1nnc(N=Cc2ccc(Cl)cc2)s1)c1ccccc1 [Compound 9b, N-({5-[(4-Chlorobenzylidene)amino]-1,3,4-thiadiazol-2-yl}sulfonyl)benzamide]	more potent
102 ± 14.5	COc1ccccc1C=Nc1nnc(S(=O)(=O)NC(=O)c2ccccc2)s1 [Compound 9c, N-({5-[(2-Methoxybenzylidene)amino]-1,3,4-thiadiazol-2-yl}sulfonyl)benzamide]	more potent
164 ± 14.6	COc1ccc(C=Nc2nnc(S(=O)(=O)NC(=O)c3ccccc3)s2)cc1 [Compound 9d, N-({5-[(4-Methoxybenzylidene)amino]-1,3,4-thiadiazol-2-yl}sulfonyl)benzamide]	–
134 ± 14.7	O=C(NS(=O)(=O)c1nnc(N=Cc2ccc(O)cc2)s1)c1ccccc1 [Compound 9e, N-({5-[(4-Hydroxybenzylidene)amino]-1,3,4-thiadiazol-2-yl}sulfonyl)benzamide]	–
204 ± 20.1	O=C(NS(=O)(=O)c1nnc(N=Cc2ccccc2O)s1)c1ccccc1 [Compound 9f, N-({5-[(2-Hydroxybenzylidene)amino]-1,3,4-thiadiazol-2-yl}sulfonyl)benzamide]	–
–	COc1cc(C=Nc2nnc(S(=O)(=O)NC(=O)c3ccccc3)s2)ccc1O [Compound 9g, N-({5-[(4-Hydroxy-3-methoxybenzylidene)amino]-1,3,4-thiadiazol-2-yl}sulfonyl)benzamide]	less activity
